US20230123334A1, “AMINO LIPID COMPOUND, PREPARATION METHOD THEREFOR, AND APPLICATION THEREOF” (SHENZHEN SHENXIN BIOTECHNOLOGY CO., LTD., priority 2020, published 2023)

Each compound was assayed on HEK293 cells (assay: Preliminary screening as mRNA vectors, EGFP mRNA transfection of HEK293 cells). Conditions: EGFP mRNA 50 ng per well, 96-well plates; percentage of GFP fluorescent cells relative to total number of cells (Hoechst).
Format: cell-based
Outline: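 Screening format: EGFP mRNA transfection (50 ng/well) into HEK293 in 10% FBS-supplemented DMEM. Percent green fluorescent cells, normalised to Hoechst nuclear count, gave the value; Lipofectamine2000 was the reference transfectant.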

| SMILES | Absolute mRNA transfection efficiency in HEK293 cells [%] |
| --- | --- |
| CCCCCCCCCCCNc1nc(NCCN2CCN(C)CC2)nc(SCCCCCCCCC)n1 [Compound D5S9N11] | 32.1 |
| CCCCCCCCCNc1nc(NCCN2CCCC2)nc(SCCCCCCCC)n1 [Compound D3S8N9] | 3.2 |
| CCCCCCCCNc1nc(NCC2CCN(C)CC2)nc(SCCCCCCC)n1 [Compound D10S7N8] | 1.3 |
| CCCCCCCCCCCCCCSc1nc(NCCCCCCCC)nc(NCC2CCN(C)CC2)n1 [Compound D10S14N8] | 43.8 |
| CCCCCCCCCCCCN(CCCCCCCCCCCC)c1nc(NCCCN2CCOCC2)nc(SCCCCCCC)n1 [D8S7^2N12] | 0.6 |
| CCCCCCCCCCCCCNc1nc(NCCN2CCOCC2)nc(SCCCCCCCC)n1 [Compound D2S8N13] | 7.5 |
| CCCCCCSc1nc(NCCN(CC)CC)nc(SCCCCCC)n1 [Compound D7S6S6] | 19.5 |
| CCCCCCCCCCCCCCCCSc1nc(NCCN(C)C)nc(N(CCCCCCCCCCCC)CCCCCCCCCCCC)n1 [D1S16^2N12] | 0.0 |
| CCCCCCCCCCCCCCCCNc1nc(NCCN2CCN(C)CC2)nc(SCCCCCCC)n1 [Compound D5S7N16] | 32.2 |
| CCCCCCCCCCCCCCCCSc1nc(NCCCCCCCC)nc(NCCN2CCN(C)CC2)n1 [Compound D5S16N8] | 72.2 |
| CCCCCCCCCCCCSc1nc(NCCN(C)C)nc(SCCCCCC)n1 [Compound D1S6S12] | 0.6 |
| CCCCCCCCCCCSc1nc(NCCN(CC)CC)nc(SCCCCCCCC)n1 [Compound D7S8S11] | 3.2 |
| CCCCCCCCCCCCCCSc1nc(NCCCCCCCC)nc(NCCN2CCCC2)n1 [Compound D3S14N8] | 55.2 |
| CCCCCCCCCCCCN(CCCCCCCCCCCC)c1nc(NCC2CCN(C)CC2)nc(SCCCCCCCCCC)n1 [D10S10^2N12] | 0.2 |
| CCCCCCCCCCCCCCCSc1nc(NCCN(C)C)nc(SCCCCCC)n1 [Compound D1S6S15] | 1.2 |
| CCCCCCCCCCCCCCCNc1nc(NCCN2CCCCC2)nc(SCCCCCCCCCCCCCC)n1 [Compound D4S14N15] | 1.7 |
| CCCCCCCCCCCCCNc1nc(NCCN2CCN(C)CC2)nc(SCCCCCCCCCC)n1 [Compound D5S10N13] | 4.6 |
| CCCCCCCCCCCCSc1nc(NCCCCCCCC)nc(NCC2CCN(C)CC2)n1 [Compound D10S12N8] | 12.9 |
| CCCCCCCCCCCCCCSc1nc(NCCCCCCC)nc(NCCN2CCN(C)CC2)n1 [Compound D5S14N7] | 59.0 |
| CCCCCCCCCCCCCCCCCCSc1nc(NCCCCCCCCCCCCCCCC)nc(NCCCN2CCN(C)CC2)n1 [Compound D9S18N16] | 0.1 |
| CCCCCCCCCCCCCNc1nc(NCC2CCN(C)CC2)nc(SCCCCCCCC)n1 [Compound D10S8N13] | 75.0 |
| CCCCCCCCCCCCCCCSc1nc(NCCCCCCCCCCC)nc(NCC2CCN(C)CC2)n1 [Compound D10S15N11] | 2.7 |

| SMILES | Absolute mRNA transfection efficiency in HEK293 cells [%] |
| --- | --- |
| CCCCCCCCCCCCCCCCNc1nc(NCCN2CCCC2)nc(SCCCCCCCCCCCC)n1 [Compound D3S12N16] | 1.9 |
| CCCCCCCCCCCCCCSc1nc(NCCCCCCCCCCC)nc(NCC2CCN(C)CC2)n1 [Compound D10S14N11] | 21.4 |
| CCCCCCCCCCCCCCCSc1nc(NCCCCCCC)nc(NCCN2CCOCC2)n1 [Compound D2S15N7] | 4.5 |
| CCCCCCCCCCCCCCSc1nc(NCCCCCCCCCCCCC)nc(NCCN(CC)CC)n1 [Compound D7S14N13] | 11.7 |
| CCCCCCCCCCCSc1nc(NCCN2CCCC2)nc(SCCCCCC)n1 [Compound D3S6S11] | 0.7 |
| CCCCCCCCCCCCNc1nc(NCCCN(C)C)nc(SCCCCCC)n1 [Compound D6S6N12] | 3.5 |
| CCCCCCCCCNc1nc(NCCN2CCN(C)CC2)nc(SCCCCCCCC)n1 [Compound D5S8N9] | 11.2 |
| CCCCCCCCCSc1nc(NCCN2CCCC2)nc(SCCCCCC)n1 [Compound D3S6S9] | 2.6 |
| CCCCCCCCCCCCCCCSc1nc(NCCCN2CCOCC2)nc(SCCCCCCC)n1 [Compound D8S7S15] | 25.2 |
| CCCCCCCCCNc1nc(NCCN2CCOCC2)nc(SCCCCCCCCC)n1 [Compound D2S9N9] | 38.5 |
| CCCCCCCCCCCCN(CCCCCCCCCCCC)c1nc(NCCN2CCN(C)CC2)nc(SCCCCCCC)n1 [D5S7^2N12] | 0.2 |
| CCCCCCCCCCCCCCCSc1nc(NCCCCCCCCCCC)nc(NCCCN2CCOCC2)n1 [Compound D8S15N11] | 1.1 |
| CCCCCCCCCCCCCCCNc1nc(NCCCN2CCOCC2)nc(SCCCCCC)n1 [Compound D8S6N15] | 0.1 |
| CCCCCCCCCCCCCCCCCCSc1nc(NCCCN(C)C)nc(SCCCCCCC)n1 [Compound D6S7S18] | 22.0 |
| CCCCCCCCCCCCCCCNc1nc(NCCN2CCN(C)CC2)nc(SCCCCCCCC)n1 [Compound D5S8N15] | 14.9 |
| CCCCCCCCCCCCN(CCCCCCCCCCCC)c1nc(NCCN2CCN(C)CC2)nc(SCCCCCCCCCCC)n1 [D5S11^2N12] | 0.6 |
| CCCCCCCCCCCSc1nc(NCCCCCCCC)nc(NCCCN2CCOCC2)n1 [Compound D8S11N8] | 0.3 |
| CCCCCCCSc1nc(NCCCN2CCOCC2)nc(SCCCCCCC)n1 [Compound D8S7S7] | 5.0 |
| CCCCCCCCCCCCCCCCSc1nc(NCCN(C)C)nc(SCCCCCC)n1 [Compound D1S6S16] | 0.9 |
| CCCCCCCCCCCCNc1nc(NCCN2CCOCC2)nc(SCCCCCCCCC)n1 [Compound D2S9N12] | 15.2 |
| CCCCCCCCCCCCCCCCNc1nc(NCCCN2CCN(C)CC2)nc(SCCCCCCCC)n1 [Compound D9S8N16] | 21.2 |
| CCCCCCCCCCCCCNc1nc(NCCCN2CCN(C)CC2)nc(SCCCCCCCCCCC)n1 [Compound D9S11N13] | 9.4 |

| SMILES | Absolute mRNA transfection efficiency in HEK293 cells [%] |
| --- | --- |
| CCCCCCCCCCCCCCCCCCNc1nc(NCCN2CCCCC2)nc(SCCCCCCCCCC)n1 [Compound D4S10N18] | 37.7 |
| CCCCCCCCCNc1nc(NCCN(C)C)nc(SCCCCCCCC)n1 [Compound D1S8N9] | 21.4 |
| CCCCCCCCCCCCCCSc1nc(NCCCCCCCCCCCC)nc(NCCN(C)C)n1 [Compound D1S14N12] | 9.6 |
| CCCCCCCCCCCCCCCCNc1nc(NCCN2CCOCC2)nc(SCCCCCCCC)n1 [Compound D2S8N16] | 3.4 |
| CCCCCCCCCCCCCCCNc1nc(NCCN2CCOCC2)nc(SCCCCCCCCCCCC)n1 [Compound D2S12N15] | 0.0 |
| CCCCCCCCCCSc1nc(NCCCN(C)C)nc(SCCCCCCC)n1 [Compound D6S7S10] | 18.1 |
| CCCCCCCCCCCCCCCSc1nc(NCCCCCCC)nc(NCCN(CC)CC)n1 [Compound D7S15N7] | 27.8 |
| CCCCCCCCCCCCCCCCCCSc1nc(NCCCN(C)C)nc(N(CCCCCCCCCCCC)CCCCCCCCCCCC)n1 [D6S18^2N12] | 0.1 |
| CCCCCCCCCCCCCCCCNc1nc(NCCCN2CCOCC2)nc(SCCCCCCCCCCCCCCC)n1 [Compound D8S15N16] | 0.4 |
| CCCCCCCCCCCCCCCCNc1nc(NCCN(C)C)nc(SCCCCCCCCCCCCCCC)n1 [Compound D1S15N16] | 3.2 |
| CCCCCCCCNc1nc(NCCN2CCCCC2)nc(SCCCCCC)n1 [Compound D4S6N8] | 0.3 |
| CCCCCCCCCCCCSc1nc(NCC2CCN(C)CC2)nc(SCCCCCCCC)n1 [Compound D10S8S12] | 67.9 |
| CCCCCCSc1nc(NCCN2CCCCC2)nc(SCCCCCC)n1 [Compound D4S6S6] | 0.9 |
| CCCCCCCCCCCCNc1nc(NCCCN(C)C)nc(SCCCCCCCCCC)n1 [Compound D6S10N12] | 25.4 |
| CCCCCCCCCCCCCCCCSc1nc(NCCN2CCOCC2)nc(N(CCCCCCCCCCCC)CCCCCCCCCCCC)n1 [D2S16^2N12] | 0.7 |
| CCCCCCCCCCCCCCCCNc1nc(NCCCN2CCOCC2)nc(SCCCCCCCCCCCCCC)n1 [Compound D8S14N16] | 0.4 |
| CCCCCCCCCCCCNc1nc(NCCCN(C)C)nc(SCCCCCCCCCCCC)n1 [Compound D6S12N12] | 10.4 |
| CCCCCCCCCCCCCCCCCCNc1nc(NCC2CCN(C)CC2)nc(SCCCCCCCCCCC)n1 [Compound D10S11N18] | 9.6 |
| CCCCCCCCCCCCCCCCCCSc1nc(NCC2CCN(C)CC2)nc(N(CCCCCCCCCCCC)CCCCCCCCCCCC)n1 [D10S18^2N12] | 0.0 |
| CCCCCCCCCCCCCCCCNc1nc(NCCN(CC)CC)nc(SCCCCCC)n1 [Compound D7S6N16] | 3.0 |
| CCCCCCCCCCSc1nc(NCCCN(C)C)nc(SCCCCCC)n1 [Compound D6S6S10] | 31.4 |
| CCCCCCCCCCCCCCCCCCSc1nc(NCCCCCCCCCCCC)nc(NCCN2CCOCC2)n1 [Compound D2S18N12] | 2.3 |
